Source: patent US12458622B2, “Methods of treatment of coronavirus-induced inflammation conditions” (priority 2020, dated 2025)
Read-outs that look alike come from different tables or passages of the source.

Legend:
[1] = test system: BV2 cells stably expressing CD33 (BV2-CD33WT); assay: Aβ42 uptake, ELISA; format: cell-based; settings: 16 hours pretreatment then 2 hours with Aβ42, vs DMSO
APP/PS1 mice = assay: Recruitment of microglial cells around amyloid plaques; settings: mouse, in vivo
[2] = test system: HMC3 human microglia cells; assay: MSD U-PLEX cytokine secretion induced by TNF-α; format: cell-based; settings: TNF-α induced, 24 hr; for inhibition at 3 µM: Homo sapiens, HMC3
Procedure: (§1) Human microglial cell line HMC3 (CRL-3304) was purchased from ATCC (American Type Culture Collection). HMC3 cell line was cultured in DMEM medium with 10% FBS, 1% L-glutamine, and 1% penicillin/streptomycin. Cells were maintained in 37° C. incubator at 5% CO2.
(§2) HMC3 cells were resuspended, counted using the LUNA-II Automated Cell Counter, seeded in the 6-well plate (400 K cells/2 mL medium/well), and incubated overnight to allow cells to attach. The media and detached cells were removed next day. The cell layer was washed three times in PBS and once in serum- and phenolred-free DMEM (SPFM). […] The conditioned medium was collected and centrifuged at 1,000×RCF (g) for 5 min to pellet detached cells and large debris, which was subsequently passed through a 0.22 μm filter with PVDF membrane to remove smaller debris. Samples of the supernatant medium were put in a CoolRack (#07210041, Fisher Scientific) on dry ice for Snap-freezing and kept at −80° C. until use.
(§3) Meso-scale U-PLEX plates that detect a cytokine panel including IL-1β, IL-2, IL-4, IL-6, IL-8, IL-10, IFN-γ, TNF-α, and a chemokine panel including IP-10/CXCL10, MCP-1/CCL2, MIP-1α/CCL3, MIP-1P/CCL4, Eotaxin/CCL11, were used as per manufacture's protocol. 25 μL of the conditioned medium was used in each well of the MSD plates to detect the analytes. The plates were then analyzed on an MSD QuickPlex SQ120 instrument.
(§4) All the data were presented as mean±standard error from at least three times, each done in triplicate. The statistical significance between two groups was determined by Student's t test, whereas the comparisons of multiple groups were carried out by one-way ANOVA, followed by Bonferroni's post-test using GraphPad Prism 7 (GraphPad Software, Inc.). A probability value of * p<0.05 was considered to be significant.

[3] = test system: HMC3 human microglia cells; assay: MSD U-PLEX chemokine secretion induced by TNF-α; format: cell-based; settings: 0.3 μg/mL TNF-α, 24 hours; for inhibition at 3 µM: Homo sapiens, HMC3
Procedure: as §1, §2, §3, §4

pH of solution in saline = format: physicochemical; settings: 25 mg in 25 ml of saline
Procedure: In some embodiments, the compounds of the invention are provided as part of a kit for infusion. The kit contains from about 25 mg to about 250 mg of the compound of Formula I or II in a volume of buffer or saline from about 25 ml to about 250 ml. The pH of saline or buffer pH ranges from about 5.8 to about 6.8. […] Alternatively, the buffer can be Ringer's lactate (pH 6.5). Alternatively yet, the buffer can be citrate buffer (pH 6.0).

Dog = settings: cited from earlier work
Rabbit = settings: Oral; cited from earlier work
Stump-tailed Monkeys [4] = settings: cited from earlier work
Stump-tailed Monkeys [5] = settings: 20 mg cromolyn and lactose capsules, 4, 16 and 72 capsules/day, 17 weeks; cited from earlier work
Wistar Rats = settings: 4% cromolyn 0, 4, 8, 16 mg/day, 3 month; cited from earlier work
Squirrel Monkeys = settings: 6 months, cited from earlier work
Rhesus Monkeys = settings: daily IV dosing at 0, 2, 10 and 50 mg/kg, 6 months; cited from earlier work
TgSOD1^G93A mice = assay: Meso Scale Discovery multi-spot cytokine assay in spinal cord and plasma of TgSOD1 mice; settings: 6.3 mg/kg i.p.
[6] = TgSOD1-Cromolyn vs TgSOD1-Vehicle, p=0.0273

O=C(O)c1cc(=O)c2c(OCC(O)COc3cccc4oc(C(=O)O)cc(=O)c34)cccc2o1 [cromolyn]
Internalized Aβ42 [1]: increased levels of internalized Aβ42
Recruitment of microglial cells around amyloid plaques (APP/PS1 mice): increased recruitment of microglial cells
IFN-γ concentration ([2]; 0.3 μM): decreased
IL-1β concentration ([2]; 0.3 μM): decreased
IL-6 concentration ([2]; 0.3 μM): decreased
IL-8 concentration ([2]; 0.3 μM): decreased
inhibition at 3 µM ([2]; read-out: inhibition of IFN-γ): > 40%
inhibition at 3 µM ([2]; read-out: inhibition of IL-1β): > 40%
inhibition at 3 µM ([2]; read-out: inhibition of IL-6): > 40%
inhibition at 3 µM ([2]; read-out: inhibition of IL-8): 25.8%
extracellular IP-10 (CXCL10) ([3]; 0.3 μM): statistically significant reduction
extracellular MCP-1 (CCL2) ([3]; 0.3 μM): statistically significant reduction
extracellular MIP-1α (CCL3) ([3]; 0.3 μM): statistically significant reduction
extracellular MIP-1β (CCL4) ([3]; 0.3 μM): statistically significant reduction
inhibition at 3 µM ([3]; read-out: inhibition of IP-10 (CXCL10)): > 40%
inhibition at 3 µM ([3]; read-out: inhibition of MCP-1 (CCL2)): > 40%
inhibition at 3 µM ([3]; read-out: inhibition of MIP-1α (CCL3)): 35.6%
inhibition at 3 µM ([3]; read-out: inhibition of MIP-1β (CCL4)): > 40%
pH (pH of solution in saline): 6.8
LD50 Value (Dog; IV): >1600 mg/kg
LD50 Value (Dog; Oral): >4 gm/kg
LD50 Value (Rabbit): >8 gm/kg
Survival until the scheduled necropsy (Stump-tailed Monkeys [4]; single IV dose 333 mg/kg, 4 to 10-day observation): given 333 mg/kg survived
Clinical signs (Stump-tailed Monkeys [4]; single IV dose 5082 mg/kg): stertorous breathing,
Time to death of one monkey (Stump-tailed Monkeys [4]; single IV dose 5082 mg/kg): mg/kg died within 4 hours
Body weight (Stump-tailed Monkeys [5]): Some weight loss.
General toxicity (Wistar Rats): No general toxic effects.
Ill health, general toxicity, or nasal irritation (Squirrel Monkeys; 2% cromolyn 0, 2, 6, 12 mg/day): No signs of ill health,
Ill health, general toxicity, or nasal irritation (Squirrel Monkeys; 4% cromolyn 0, 5, 16, 32 mg/day): No signs of ill health,
Body weight, observations, clinical laboratory results, organ weights, gross and microscopic pathology (Rhesus Monkeys): within normal limits and
IL-10 level in plasma (TgSOD1^G93A mice; TgSOD1-Cromolyn vs TgSOD1-Vehicle, p=0.0095): significantly decreased
IL-2 level in plasma (TgSOD1^G93A mice; TgSOD1-Cromolyn vs TgSOD1-Vehicle, p=0.0211): significantly decreased
IL-6 level in plasma (TgSOD1^G93A mice; [6]): significantly decreased
TNFα level in spinal cord (TgSOD1^G93A mice; [6]): significant decrease
TNFα level in plasma (TgSOD1^G93A mice; TgSOD1-Cromolyn vs TgSOD1-Vehicle, p=0.110): trend towards a decrease
IL-13 level in plasma (TgSOD1^G93A mice; between groups, FIG. 2A): no statistically significant difference
IL-5 level in plasma (TgSOD1^G93A mice; between groups, FIG. 2C): no statistically significant difference
